Here are results for 29 molecules from patent US20240174662A1, “SMALL MOLECULE INHIBITORS OF SALT INDUCIBLE KINASES” (Janssen Biotech, Inc., priority 2021, published 2024).

SMILES strings stand for the structures.

This test deals with SIK2 (Homo sapiens (Human), UniProt Q9H0K1). Description: SIK2 Enzymatic Assay Version 2 (High ATP). Format: biochemical. The conditions noted are these: 3 mM ATP and 200 μM HDAC5tide final, ADP-Glo Max luminescence. The essentials: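 Run at room temperature; SIK2 enzyme at 6 nM (2× final) preincubated with compound 30 min before reaction. ADP formation detected by ADP-Glo Max (2 h reagent, 1 h detection) with luminescence read-out.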
SIK2, sequence (Q9H0K1 whole entry, species assumed): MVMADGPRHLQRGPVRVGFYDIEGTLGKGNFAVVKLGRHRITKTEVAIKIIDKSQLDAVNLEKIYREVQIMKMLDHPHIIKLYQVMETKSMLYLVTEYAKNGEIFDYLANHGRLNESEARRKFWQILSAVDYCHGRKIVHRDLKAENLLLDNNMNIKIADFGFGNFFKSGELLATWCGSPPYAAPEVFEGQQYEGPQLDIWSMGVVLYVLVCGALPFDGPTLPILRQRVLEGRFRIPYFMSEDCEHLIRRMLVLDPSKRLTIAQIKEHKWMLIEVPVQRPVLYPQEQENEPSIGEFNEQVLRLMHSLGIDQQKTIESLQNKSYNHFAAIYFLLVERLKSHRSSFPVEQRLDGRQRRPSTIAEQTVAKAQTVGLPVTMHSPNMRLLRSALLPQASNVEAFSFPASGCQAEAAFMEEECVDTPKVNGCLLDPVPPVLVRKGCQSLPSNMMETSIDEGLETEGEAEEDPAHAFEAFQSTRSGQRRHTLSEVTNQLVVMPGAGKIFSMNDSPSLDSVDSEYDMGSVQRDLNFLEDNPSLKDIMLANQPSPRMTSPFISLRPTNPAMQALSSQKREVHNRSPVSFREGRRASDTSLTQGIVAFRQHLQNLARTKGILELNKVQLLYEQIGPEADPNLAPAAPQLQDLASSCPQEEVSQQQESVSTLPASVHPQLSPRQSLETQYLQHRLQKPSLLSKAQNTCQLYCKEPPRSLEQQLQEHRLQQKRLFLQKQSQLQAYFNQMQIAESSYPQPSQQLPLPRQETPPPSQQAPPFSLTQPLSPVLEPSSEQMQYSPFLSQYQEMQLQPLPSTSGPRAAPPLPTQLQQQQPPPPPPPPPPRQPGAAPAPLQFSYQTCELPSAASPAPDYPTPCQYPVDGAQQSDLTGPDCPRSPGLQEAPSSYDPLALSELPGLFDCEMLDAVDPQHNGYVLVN
In general terms: ADP-Glo first removes unused ATP, then detects ADP through luciferase.
As usually defined, the IC50 is the concentration that inhibits the measured activity by half. A high value points to weaker potency. The molecule `CO[C@H]1CNC[C@H]1Oc1cnn(C)c1-c1ccn2nc(NC(=O)C3CC3)cc2c1` (stereo in doubt) [Example 5, N-(5-(4-(((3*R,4*S)-4-methoxypyrrolidin-3-yl)oxy)-1-methyl-1H-pyrazol-5-yl)pyrazolo[1,5-a]pyridin-2-yl)cyclopropanecarboxamide] registered a 50% inhibitory concentration (IC50) of 10.9 nM.
Consider `CCN1CC2(CC2)[C@@H]1COc1cnn(C)c1-c1ccn2nc(NC(=O)C3CC3)cc2c1` (single isomer, unassigned) [Example 16, (*R)—N-(5-(4-((5-Ethyl-5-azaspiro[2.3]hexan-4-yl)methoxy)-1-methyl-1H-pyrazol-5-yl)pyrazolo[1,5-a]pyridin-2-yl)cyclopropanecarboxamide], for which the half-maximal inhibitory concentration (IC50) was 219 nM.
Next, `CN1CC[C@@H]1COc1cnn(C)c1-c1ccn2nc(NC(=O)[C@@H]3C[C@@H]3C#N)cc2c1` [Example 475, cis-2-cyano-N-[5-[2-methyl-4-[(1-methylazetidin-2-yl)methoxy]pyrazol-3-yl]pyrazolo[1,5-a]pyridin-2-yl]cyclopropanecarboxamide]: 51.9 nM.
`C[C@H](O)CN1CC[C@@H]1COc1cnn(C)c1-c1ccn2nc(NC(=O)C3CC3)cc2c1` [Example 253, N-[5-[4-[[(2R)-1-[(2S)-2-hydroxypropyl]azetidin-2-yl]methoxy]-2-methyl-pyrazol-3-yl]pyrazolo[1,5-a]pyridin-2-yl]cyclopropanecarboxamide] had an IC50 of 2.4 nM.
As to `CCN1CC[C@@H]1COc1cnn(C)c1-c1ccn2nc(Nc3cc(C)nc(C)n3)cc2c1` [Example 62, N-(2,6-dimethylpyrimidin-4-yl)-5-[4-[[(2R)-1-ethylazetidin-2-yl]methoxy]-2-methyl-pyrazol-3-yl]pyrazolo[1,5-a]pyridin-2-amine], the IC50 turned out to be 0.9 nM.
In turn, `Cc1cc(Nc2cc3cc(-c4c(OC[C@H]5CCCN5C)cnn4C)ccn3n2)nc(C)n1` [Example 282, N-(2,6-dimethylpyrimidin-4-yl)-5-[2-methyl-4-[[(2R)-1-methylpyrrolidin-2-yl]methoxy]pyrazol-3-yl]pyrazolo[1,5-a]pyridin-2-amine] yielded an IC50 of 11.3 nM.
In turn, `Cc1ccc(Nc2cc3cc(-c4c(OC[C@H]5CCCN5C)cnn4C)ccn3n2)nn1` [Example 287, 5-[2-methyl-4-[[(2R)-1-methylpyrrolidin-2-yl]methoxy]pyrazol-3-yl]-N-(6-methylpyridazin-3-yl)pyrazolo[1,5-a]pyridin-2-amine] showed an IC50 of 37.2 nM.
Turning to `CCN1CC[C@@H]1COc1cnn(C)c1-c1ccn2nc(Nc3cnc(OC(F)F)cn3)cc2c1` [Example 181, N-[5-(difluoromethoxy)pyrazin-2-yl]-5-[4-[[(2R)-1-ethylazetidin-2-yl]methoxy]-2-methyl-pyrazol-3-yl]pyrazolo[1,5-a]pyridin-2-amine], 2.2 nM corresponded to half-maximal inhibition (IC50).
Regarding `Cn1ncc(O[C@@H]2CNC[C@@H]2F)c1-c1ccn2nc(NC(=O)C3CC3)cc2c1` [Example 242, N-[5-[4-[(3R,4S)-4-fluoropyrrolidin-3-yl]oxy-2-methyl-pyrazol-3-yl]pyrazolo[1,5-a]pyridin-2-yl]cyclopropanecarboxamide], it took 8.3 nM to reach half-maximal inhibition (IC50).
For `Cc1onc(OC[C@@]23C[C@@H](CO2)N(C)C3)c1-c1ccn2nc(NC(=O)C3CC3)cc2c1` [Example 203, N-[5-[5-methyl-3-[[(1S,4S)-2-methyl-5-oxa-2-azabicyclo[2.2.1]heptan-4-yl]methoxy]isoxazol-4-yl]pyrazolo[1,5-a]pyridin-2-yl]cyclopropanecarboxamide] the value was 27.4 nM; for `Cc1cc(Nc2cc3cc(-c4c(OC[C@H]5CCCN5C)cnn4C)ccn3n2)ncn1` [Example 285, 5-[2-methyl-4-[[(2R)-1-methylpyrrolidin-2-yl]methoxy]pyrazol-3-yl]-N-(6-methylpyrimidin-4-yl)pyrazolo[1,5-a]pyridin-2-amine], 18.5 nM.
The molecule `Cn1ncc(COC2CCNCC2)c1-c1ccn2nc(NC(=O)C3CC3)cc2c1` [Example 463, N-[5-[2-methyl-4-(4-piperidyloxymethyl)pyrazol-3-yl]pyrazolo[1,5-a]pyridin-2-yl]cyclopropanecarboxamide] came in with an IC50 of 74.5 nM.
`Cn1ncc(CO[C@H]2C[C@H]3COC[C@@H](C2)N3)c1-c1ccn2nc(NC(=O)C3CC3)cc2c1` [Example 183, N-[5-[2-methyl-4-[[(1S,5R)-3-oxa-9-azabicyclo[3.3.1]nonan-7-yl]oxymethyl]pyrazol-3-yl]pyrazolo[1,5-a]pyridin-2-yl]cyclopropanecarboxamide] gave an IC50 of 11.7 nM.
The molecule `Cn1ncc(OC[C@@H](N)C(C)(C)C)c1-c1ccn2nc(NC(=O)C3CC3)cc2c1` [Example 348, N-[5-[4-[(2S)-2-amino-3,3-dimethyl-butoxy]-2-methyl-pyrazol-3-yl]pyrazolo[1,5-a]pyridin-2-yl]cyclopropanecarboxamide] had an IC50 of 55.3 nM.
`Cc1onc(OC[C@@H](N)c2ccccc2)c1-c1ccn2nc(NC(=O)C3CC3)cc2c1` [Example 31, N-[5-[3-[(2S)-2-amino-2-phenyl-ethoxy]-5-methyl-isoxazol-4-yl]pyrazolo[1,5-a]pyridin-2-yl]cyclopropanecarboxamide] came in with an IC50 of 1 nM.
Take `Cc1cnc(Nc2cc3cc(-c4c(COC5CN(C)CC5C)cnn4C)ccn3n2)cn1` (racemic) [Example 376, Rac-CIS-5-[4-[(1,4-dimethylpyrrolidin-3-yl)oxymethyl]-2-methyl-pyrazol-3-yl]-N-(5-methylpyrazin-2-yl)pyrazolo[1,5-a]pyridin-2-amine]: half-maximal inhibition (IC50) required 4.3 nM.
Molecule `Cc1onc(OC[C@@H]2CCCNC2)c1-c1ccn2nc(NC(=O)C3CC3)cc2c1` [Example 383, N-[5-[5-methyl-3-[[(3R)-3-piperidyl]methoxy]isoxazol-4-yl]pyrazolo[1,5-a]pyridin-2-yl]cyclopropanecarboxamide] had a concentration for half-maximal inhibition (IC50) of 89.9 nM.
For `CN1CC[C@@H]1COc1cnn(C)c1-c1ccn2nc(Nc3ccc(=O)n(C)n3)cc2c1` [Example 143, 2-methyl-6-[[5-[2-methyl-4-[[(2R)-1-methylazetidin-2-yl]methoxy]pyrazol-3-yl]pyrazolo[1,5-a]pyridin-2-yl]amino]pyridazin-3-one] the value was 2.4 nM; for `COc1nnc(Nc2cc3cc(-c4c(OC[C@H]5CCN5C)cnn4C)ccn3n2)cc1C` [Example 147, N-(6-methoxy-5-methyl-pyridazin-3-yl)-5-[2-methyl-4-[[(2R)-1-methylazetidin-2-yl]methoxy]pyrazol-3-yl]pyrazolo[1,5-a]pyridin-2-amine], 0.9 nM; for `Cc1cc(Nc2cc3cc(-c4c(OCC(N)C56CC(C5)C6)cnn4C)ccn3n2)nc(C)n1` (centres unmarked) [Example 310, 5-[4-[2-amino-2-(3-bicyclo[1.1.1]pentanyl)ethoxy]-2-methyl-pyrazol-3-yl]-N-(2,6-dimethylpyrimidin-4-yl)pyrazolo[1,5-a]pyridin-2-amine], 4 nM.
`COC1(COc2noc(C)c2-c2ccn3nc(NC(=O)C4CC4)cc3c2)CCNCC1` [Example 206, N-[5-[3-[(4-methoxy-4-piperidyl)methoxy]-5-methyl-isoxazol-4-yl]pyrazolo[1,5-a]pyridin-2-yl]cyclopropanecarboxamide] displayed an IC50 of 35 nM.
Consider `Cc1onc(O[C@H]2C[C@H]3C[C@@H]2CN3)c1-c1ccn2nc(NC(=O)C3CC3)cc2c1` (racemic) [Example 212, Exo-Rac-N-[5-[3-(2-azabicyclo[2.2.1]heptan-5-yloxy)-5-methyl-isoxazol-4-yl]pyrazolo[1,5-a]pyridin-2-yl]cyclopropanecarboxamide], for which the half-inhibitory concentration (IC50) came to 46.4 nM.
As to `Cc1onc(O[C@@H]2CCNC2)c1-c1ccn2nc(NC(=O)C3CC3)cc2c1` [Example 74, N-[5-[5-methyl-3-[(3R)-pyrrolidin-3-yl]oxy-isoxazol-4-yl]pyrazolo[1,5-a]pyridin-2-yl]cyclopropanecarboxamide], the IC50 came out at 144 nM.
For `Cc1cc(Nc2cc3cc(-c4c(OC[C@H]5CCN5C)cnn4C)ccn3n2)nc(C)n1` [Example 2, N-(2,6-dimethylpyrimidin-4-yl)-5-[2-methyl-4-[[(2R)-1-methylazetidin-2-yl]methoxy]pyrazol-3-yl]pyrazolo[1,5-a]pyridin-2-amine] the value was less than 0.847 nM; for `Cc1cc(Nc2cc3cc(-c4c(OC[C@H]5CCN5C)cnn4C)ccn3n2)nc(C(=O)NCC(C)(C)O)c1` [Example 113, N-(2-hydroxy-2-methyl-propyl)-4-methyl-6-[[5-[2-methyl-4-[[(2R)-1-methylazetidin-2-yl]methoxy]pyrazol-3-yl]pyrazolo[1,5-a]pyridin-2-yl]amino]pyridine-2-carboxamide], 22.3 nM.
As to `Cn1ccc(CN2CC[C@@H]2COc2cnn(C)c2-c2ccn3nc(NC(=O)C4CC4)cc3c2)n1` [Example 430, N-[5-[2-methyl-4-[[(2R)-1-[(1-methylpyrazol-3-yl)methyl]azetidin-2-yl]methoxy]pyrazol-3-yl]pyrazolo[1,5-a]pyridin-2-yl]cyclopropanecarboxamide], the IC50 was found to be 97 nM.
Molecule `Cc1cc(Nc2cc3cc(-c4c(OC[C@H]5OCC[C@@H]5O)cnn4C(F)F)ccn3n2)nc(C)n1` [Example 99, (2R,3S)-2-[[1-(difluoromethyl)-5-[2-[(2,6-dimethylpyrimidin-4-yl)amino]pyrazolo[1,5-a]pyridin-5-yl]pyrazol-4-yl]oxymethyl]tetrahydrofuran-3-ol] came in with a concentration for half-maximal inhibition (IC50) of 10.9 nM.
In turn, `Cc1cc(Nc2cc3cc(-c4c(OC[C@H](O)C5(C)CC5)cnn4C)ccn3n2)nc(C)n1` (single isomer, unassigned) [Example 356, (1*R)-2-[5-[2-[(2,6-dimethylpyrimidin-4-yl)amino]pyrazolo[1,5-a]pyridin-5-yl]-1-methyl-pyrazol-4-yl]oxy-1-(1-methylcyclopropyl)ethanol] yielded an IC50 of 59.1 nM.
`Cc1onc(OC[C@@H](N)C2CC2)c1-c1ccn2nc(NC(=O)C3CC3)cc2c1` [Example 328, N-[5-[3-[(2S)-2-amino-2-cyclopropyl-ethoxy]-5-methyl-isoxazol-4-yl]pyrazolo[1,5-a]pyridin-2-yl]cyclopropanecarboxamide] returned an IC50 of 61.8 nM.
